The conditions of data set [1]: racemic nitrendipine; cited from earlier work.
The conditions of data set [2]: oral administration with water; cited from earlier work.
For the next data set, the system named is CYP3A4. The conditions noted are these: cited from earlier work.
The test system of data set [3] is felodipine first-pass metabolism. The conditions noted are these: in vivo; cited from earlier work.
The target of data set [4] is T1, cytochrome P450 3A4 (Homo sapiens, UniProt P08684).
T1 construct: made in house; host or cells: Saccharomyces cerevisiae strain AH22, vector pAAH5 (p3A4); microsomal fractions
In words: Inhibition of cyclosporin A metabolism (3 metabolites M1, M6, M21) by yeast-expressed P450 3A4 microsomes. In kind it is biochemical. Here is the method:
Human cytochrome P450 3A4 was expressed using the vector pAAH5 (p3A4) in Saccharomyces cerevisiae strain AH22 (Guengerich et al., 1991). Plasmid DNA was prepared using Promega's Wizard kit and S. cerevisiae strain AH22 (a his4-519 leu2-3,2-112) was used for transformation. Transformants were grown and maintained at 30° C. on minimal medium containing 2% (w/v) glucose, 0.67% (w/v) Difco yeast nitrogen base without amino acids and 20 μg/ml histidine. Cytochrome P450 content and substrate binding studies were carried out spectrally using a Philips PU8800 US/Vis scanning spectrophotometer according to Omura and Sato (1964) and Jefcoate (1979) respectively. Protein content was determined by the method of Lowry et al. 1956. […] CO was bubbled into the sample cuvette and the difference spectrum was recorded between 390-500 nm. […] Nootkatone was added to the microsomal fractions in the sample cuvette but to the buffer in the reference cuvette and difference spectra recorded between 350-500 nm. […]
The ethyl acetate extracts from biotransformation studies were directly spotted on to TLC plates and developed in solvent system heptane/pyridine/ethyl acetate (100/75/1 v/v) in a chromatographic tank lined with a blotting paper the same size as the TLC plate. […] The Rf valves of spots were measured and compared to the literature. […]

A short description of data set [5]: Toxicity of nootkatone at concentrations in grapefruit juice. As to conditions: at concentrations found in normal strength grapefruit juice (approximately 7 mg/200 ml).
Data set [6] deals with T1, cytochrome P450 3A4. As to the kind of experiment: biochemical. The format is binding. Here is the method: Human cytochrome P450 3A4 was expressed using the vector pAAH5 (p3A4) in Saccharomyces cerevisiae strain AH22 (Guengerich et al., 1991). Plasmid DNA was prepared using Promega's Wizard kit and S. cerevisiae strain AH22 (a his4-519 leu2-3,2-112) was used for transformation. Transformants were grown and maintained at 30° C. on minimal medium containing 2% (w/v) glucose, 0.67% (w/v) Difco yeast nitrogen base without amino acids and 20 μg/ml histidine. Cytochrome P450 content and substrate binding studies were carried out spectrally using a Philips PU8800 US/Vis scanning spectrophotometer according to Omura and Sato (1964) and Jefcoate (1979) respectively. Protein content was determined by the method of Lowry et al. 1956. Yeast microsomal fractions used in reduced carbon monoxide difference spectra, substrate binding studies and metabolism studies were prepared as described previously (Mehmood et al., 1995). This involved mechanical breakage of the yeast cells (harvested at 5×10^7 cells/ml) using a Braun MSK homogeniser and centrifugation to pellet cells and mitochondria prior to harvesting microsomes after 1 h, 100000 g. […] CO was bubbled into the sample cuvette and the difference spectrum was recorded between 390-500 nm. […] Nootkatone was added to the microsomal fractions in the sample cuvette but to the buffer in the reference cuvette and difference spectra recorded between 350-500 nm.

In data set [7] the test system is cytochrome P450 or related enzyme system. As to the kind of experiment: Inhibition of the first enzyme catalysed oxidative step (conversion of valencene to nootkatone). The format is cell-based, both eukaryotes and prokaryotes. The conditions noted are these: valencene oxidation; many organisms, eukaryotes and prokaryotes. The source says: In addition to plant produced nootkatone a number of enzyme systems produced by organisms other than higher plants have the capability of converting synthetic precursors of nootkatone to nootkatone itself. Thus, for example, a variety of microorganisms can oxidise valencene to nootkatone.
Whilst investigating such transformations as effected by bacteria and fungi, it was deduced that the conversion was the result of two oxidative steps. The first was indicated to be carried out by an enzyme thought to be a cytochrome P450 or related enzyme system. The second appeared as an oxidoreductase transformation.

One may read the IC50 as the concentration needed to halve the response being measured. For orientation: Kd means the constant that tells how readily two partners part at equilibrium.

T1 sequence (P08684 whole entry): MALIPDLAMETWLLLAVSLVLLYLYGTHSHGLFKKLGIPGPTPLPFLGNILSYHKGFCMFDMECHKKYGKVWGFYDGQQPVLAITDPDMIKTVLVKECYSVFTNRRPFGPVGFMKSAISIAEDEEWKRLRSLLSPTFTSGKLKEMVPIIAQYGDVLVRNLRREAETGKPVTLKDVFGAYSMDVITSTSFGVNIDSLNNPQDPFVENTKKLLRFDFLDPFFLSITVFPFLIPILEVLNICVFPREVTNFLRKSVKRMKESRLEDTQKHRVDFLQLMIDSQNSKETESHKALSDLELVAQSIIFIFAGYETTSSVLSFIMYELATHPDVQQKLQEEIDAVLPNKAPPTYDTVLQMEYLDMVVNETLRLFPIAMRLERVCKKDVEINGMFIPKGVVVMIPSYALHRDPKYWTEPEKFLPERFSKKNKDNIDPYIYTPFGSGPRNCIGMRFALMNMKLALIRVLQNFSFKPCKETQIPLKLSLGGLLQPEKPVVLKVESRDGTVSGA

Turning to `CCOC(=O)C1=C(C)NC(C)=C(C(=O)OC)C1c1cccc([N+](=O)[O-])c1` (racemic) [nitrendipine], in data set [1], the gastrointestinal absorption result is listed as “almost complete” and the systemic bioavailability was 5% to 30.

As for `CCOC(=O)C1=C(C)NC(C)=C(C(=O)OC)C1c1cccc(Cl)c1Cl` (stereo not shown) [felodipine], the average bioavailability in data set [2] is given as 15%.

`CC(=O)N1CCN(c2ccc(OCC3COC(Cn4ccnc4)(c4ccc(Cl)cc4Cl)O3)cc2)CC1` (stereo not shown) [ketoconazole]: the “inhibition of CYP3A4” value in the data set on CYP3A4 is reported as “known to inhibit CYP3A4”.

Regarding `C[C@@H]1O[C@@H](O[C@H]2[C@H](Oc3cc(O)c4c(c3)O[C@H](c3ccc(O)cc3)CC4=O)O[C@H](CO)[C@@H](O)[C@@H]2O)[C@H](O)[C@H](O)[C@H]1O` [naringin], the “interaction with felodipine compared with grapefruit juice” value in data set [3] is “less interaction”.

With `C=C(C)C1CCC2=CC(O)CC(C)C2(C)C1` (stereo not shown) [nootkatol], the “inhibitory effect compared with nootkatone” value at cytochrome P450 3A4 [4] (similar experiments to nootkatone) is “less marked inhibitory effect”.

With `C=C(C)[C@@H]1CCC2=CC(=O)C[C@@H](C)[C@]2(C)C1` [nootkatone], the toxicity entry in data set [5] is given as “does not appear to be toxic”. In addition, the IC50 at cytochrome P450 3A4 [4] is < 140 µM. In addition, the Kd on cytochrome P450 3A4 [6] is 80 to 100 µM. In data set [7], the “inhibition of the first enzyme catalysed oxidative step” value is “acts as an inhibitor of the first enzyme catalysed oxidative step”.

(Values after US6054490A, “Use of sesquiterpenes for inhibiting oxidative enzymes” (Zylepsis Limited, priority 1995, dated 2000).)
